# Data: patent US20230150924A1, “NOVEL COMPOUND HAVING CANCER METASTASIS INHIBITORY ACTIVITY, PREPARATION METHOD THEREFOR, AND PHARMACEUTICAL COMPOSITION FOR INHIBITING CANCER METASTASIS AND INVASION OR TREATING COLORECTAL CANCER, COMPRISING COMPOUND” (CELLGENTEK CO., LTD., priority 2019, published 2023)
# Legend:
# KAI1 promoter = KAI1 promoter luciferase reporter assay in transfected Caco2 cells; type: cell-based, human; settings: Homo sapiens, Caco-2, 16 h, 1 μM compound, 16 hours, transfected Caco2 cells, luciferase activity relative to DMSO control (=1); read-out: Relative KAI promoter activity
# [1] = test system: invasion of colorectal cancer cells; assay: In vivo relative invation (invasion; EV and KITENIN controls, no method described); settings: relative to EV (=1); KIT = KITENIN
Compound,fold induction at 1 µM (KAI1 promoter),In vivo relative invation [1]
"O=C(CNC(=O)c1ccccc1OC1CCN(C(=O)c2ccc(C(F)(F)F)cc2)CC1)c1ccccc1 [Example 193, N-(2-oxo-2-phenylethyl)-2-((1-(4-(trifluoromethyl)benzoyl)piperidin-4-yl)oxy)benzamide]",0.82,1.214
"O=C(CNC(=O)c1ccccc1OC1CCN(C(=O)c2ccc(F)cc2Cl)CC1)c1ccccc1 [Example 194, 2-((1-(2-chloro-4-fluorobenzoyl)piperidin-4-yl)oxy)-N-(2-oxo-2-phenylethyl)benzamide]",1.01,1.259
"O=C(CNC(=O)c1ccccc1OC1CCN(C(=O)c2cccc([N+](=O)[O-])c2)CC1)c1ccccc1 [Example 195, 2-((1-(3-nitrobenzoyl)piperidin-4-yl)oxy)-N-(2-oxo-2-phenylethyl)benzamide]",1.08,1.139
"O=C(CNC(=O)c1ccccc1OC1CCN(C(=O)c2ccc(F)c(F)c2)CC1)c1ccccc1 [Example 196, 2-((1-(3,4-difluorobenzoyl)piperidin-4-yl)oxy)-N-(2-oxo-2-phenylethyl)benzamide]",0.84,1.113
"O=C(CNC(=O)c1ccccc1OC1CCN(C(=O)c2cc(Cl)cc(Cl)c2)CC1)c1ccccc1 [Example 197, 2-((1-(3,5-dichlorobenzoyl)piperidin-4-yl)oxy)-N-(2-oxo-2-phenylethyl)benzamide]",0.92,1.214
"O=C(CNC(=O)c1ccccc1OC1CCN(C(=O)c2cccc(Cl)c2Cl)CC1)c1ccccc1 [Example 198, 2-((1-(2,3-dichlorobenzoyl)piperidin-4-yl)oxy)-N-(2-oxo-2-phenylethyl)benzamide]",0.87,1.15
"O=C(CNC(=O)c1ccccc1OC1CCN(C(=O)c2ccc(OC(F)(F)F)cc2)CC1)c1ccccc1 [Example 199, N-(2-oxo-2-phenylethyl)-2-((1-(4-(trifluoromethoxy)benzoyl)piperidin-4-yl)oxy)benzamide]",0.97,1.105
"O=C(CNC(=O)c1ccccc1OC1CCN(C(=O)c2cccc(OC(F)(F)F)c2)CC1)c1ccccc1 [Example 200, N-(2-oxo-2-phenylethyl)-2-((1-(3-(trifluoromethoxy)benzoyl)piperidin-4-yl)oxy)benzamide]",1.01,1.074
"O=C(COc1ccccc1C(=O)NCC(=O)c1ccccc1)Nc1ccccc1 [Example 201, 2-(2-oxo-2-(phenylamino)ethoxy)-N-(2-oxo-2-phenylethyl)benzamide]",1.46,0.9283
"Cc1ccccc1NC(=O)COc1ccccc1C(=O)NCC(=O)c1ccccc1 [Example 202, 2-(2-oxo-2-(o-toylamino)ethoxy)-N-(2-oxo-2-phenylethyl)benzamide]",1.31,1.138
"C=CCNC(=O)COc1ccccc1C(=O)NCC(=O)c1ccccc1 [Example 203, 2-(2-(allylamino)-2-oxoethoxy)-N-(2-oxo-2-phenylethyl)benzamide]",1.05,1.178
"O=C(COc1ccccc1C(=O)NCC(=O)c1ccccc1)NCc1ccccc1 [Example 204, 2-(2-(benzylamino)-2-oxoethoxy)-N-(2-oxo-2-phenylethyl)benzamide]",1.3,1.095
"O=C(COc1ccccc1C(=O)NCC(=O)c1ccccc1)NCc1cccc(F)c1 [Example 205, 2-(2-((fluorobenzyl)amino)-2-oxoethoxy)-N-(2-oxo-2-phenylethyl)benzamide]",1.1,1.166
"COc1cc(C)ccc1NC(=O)COc1ccccc1C(=O)NCC(=O)c1ccccc1 [Example 206, 2-(2-((2-methoxy-4-methylphenyl)amino)-2-oxoethoxy)-N-(2-oxo-2-phenylethyl)benzamide]",1.05,1.11
"COc1ccc(NC(=O)COc2ccccc2C(=O)NCC(=O)c2ccccc2)cc1F [Example 207, 2-(2-((3-fluoro-4-methoxyphenyl)amino)-2-oxoethoxy)-N-(2-oxo-2-phenylethyl)benzamide]",1.43,1.036
"O=C(COc1ccccc1C(=O)NCC(=O)c1ccccc1)Nc1cccnc1 [Example 208, 2-(2-oxo-2-(pyridin-3-ylamino)ethoxy)-N-(2-oxo-2-phenylethyl)benzamide]",1.14,1.184
"COc1cccc(NC(=O)COc2ccccc2C(=O)NCC(=O)c2ccccc2)c1 [Example 209, 2-(2-((3-methoxyphenyl)amino)-2-oxoethoxy)-N-(2-oxo-2-phenylethyl)benzamide]",1.12,1.07
"CCCc1ccccc1NC(=O)COc1ccccc1C(=O)NCC(=O)c1ccccc1 [Example 210, 2-(2-oxo-2-((2-propylphenyl)amino)ethoxy)-N-(2-oxo-2-phenylethyl)benzamide]",1.03,0.9274

Compound,fold induction at 1 µM (KAI1 promoter),In vivo relative invation [1]
O=C(COc1ccccc1C(=O)NCC(=O)c1ccccc1)Nc1ccc(F)c([N+](=O)[O-])c1 [Example 211],1.44,0.8699
O=C(COc1ccccc1C(=O)NCC(=O)c1ccccc1)NCc1ccc2c(c1)OCO2 [Example 212],1.01,1.219
"CCCc1ccc(NC(=O)COc2ccccc2C(=O)NCC(=O)c2ccccc2)cc1 [Example 213, 2-(2-oxo-2-((4-propylphenyl)amino)ethoxy)-N-(2-oxo-2-phenylethyl)benzamide]",1.14,1.209
"COc1ccc(CNC(=O)COc2ccccc2C(=O)NCC(=O)c2ccccc2)cc1OC [Example 215, 2-(2-((3,4-dimethoxybenzyl)amino)-2-oxoethoxy)-N-(2-oxo-2-phenylethyl)benzamide]",0.975,1.304
"COc1ccc(NC(=O)COc2ccccc2C(=O)NCC(=O)c2ccccc2)cc1OC [Example 216, 2-(2-((3,4-dimethoxyphenyl)amino)-2-oxoethoxy)-N-(2-oxo-2-phenylethyl)benzamide]",1.2,1.255
"O=C(COc1ccccc1C(=O)NCC(=O)c1ccccc1)Nc1ccc2c(c1)OCO2 [Example 217, 2-(2-(benzo [d] [1,3]dioxol-5-ylamino)-2-oxoethoxy)-N-(2-oxo-2-phenylethyl)benzamide]",1.18,1.266
"O=C(COc1ccccc1C(=O)NCC(=O)c1ccccc1)Nc1ccc2c(c1)OCCO2 [Example 218, 2-(2-((2,3-dihydrobenzo[b] [1, 4]dioxin-6-yl)amino)-2-oxoethoxy)-N-(2-oxo-2-phenylethyl)benzamide]",1.33,1.169
"O=C(COc1ccccc1C(=O)NCC(=O)c1ccccc1)Nc1ccc2c(c1)CCC2 [Example 219, 2-(2-((2,3-dihydro-1H-inden-5-yl)amino)-2-oxoethoxy)-N-(2-oxo-2-phenylethyl)benzamide]",1.27,1.145
"CC(C)Oc1cccc(NC(=O)COc2ccccc2C(=O)NCC(=O)c2ccccc2)c1 [Example 220, 2-(2-((3-isopropoxyphenyl)amino)-2-oxoethoxy)-N-(2-oxo-2-phenylethyl)benzamide]",1.15,0.9324
"O=C(COc1ccccc1C(=O)NCC(=O)c1ccccc1)Nc1ccc(Oc2ccccc2)cc1 [Example 221, 2-(2-oxo-2-((4-phenoxyphenyl)amino)ethoxy)-N-(2-oxo-2-phenylethyl)benzamide]",0.961,1.322
"O=C(COc1ccccc1C(=O)NCC(=O)c1ccccc1)Nc1cc(C(F)(F)F)ccc1F [Example 222, 2-(2-((2-fluoro-5-(trifluoromethyl)phenyl)amino)-2-oxoethoxy)-N-(2-oxo-2-phenylethyl)benzamide]",1.2,1.275
"O=C(COc1ccccc1C(=O)NCC(=O)c1ccccc1)Nc1cccc(O)c1 [Example 223, 2-(2-((3-hydroxyphenyl)amino)-2-oxoethoxy)-N-(2-oxo-2-phenylethyl)benzamide]",1.1,1.195
"O=C(COc1ccccc1C(=O)NCC(=O)c1ccccc1)Nc1ccccc1Cl [Example 224, 2-(2-((2-chlorophenyl)amino)-2-oxoethoxy)-N-(2-oxo-2-phenylethyl)benzamide]",1.13,1.25
"O=C(COc1ccccc1C(=O)NCC(=O)c1ccccc1)Nc1cccc(Br)c1 [Example 225, 2-(2-((3-bromophenyl)amino)-2-oxoethoxy)-N-(2-oxo-2-phenylethyl)benzamide]",1.35,1.235
"CC(C)NC(=O)COc1ccccc1C(=O)NCC(=O)c1ccccc1 [Example 226, 2-(2-(isopropylamino)-2-oxoethoxy)-N-(2-oxo-2-phenylethyl)benzamide]",1.09,1.349
"O=C(CNC(=O)c1ccccc1OCC(=O)N1CCc2ccccc2C1)c1ccccc1 [Example 227, 2-(2-(3,4-dihydroisoquinolin-2 (1H)-yl)-2-oxoethoxy)-N-(2-oxo-2-phenylethyl)benzamide]",1.01,1.153
CCCNC(=O)COc1ccccc1C(=O)NCC(=O)c1ccccc1 [Example 228],0.982,1.278
"CC(C)CCNC(=O)COc1ccccc1C(=O)NCC(=O)c1ccccc1 [Example 229, 2-(2-(isopentylamino)-2-oxoethoxy)-N-(2-oxo-2-phenylethyl)benzamide]",1.06,1.245
